Measured values reported in PMC12177912, “A Geranylated Natural Product Simamycin Disrupts the Allosteric Catalysis of tRNA-2-selenouridine Synthase SelU” (Biochemistry, 2025).

Biological target: T1, tRNA-2-selenouridine synthase (SelU, MnmH) (Escherichia coli, UniProt Q0TKD8)
T1 construct: M1-A172 (N-terminal rhodanese domain; tags removed with TEV)
Experiment: intrinsic tryptophan fluorescence quenching titration (Kd at […] °C; […] at […] °C, […] at […] °C, […] at […] °C); STD NMR
Assay type: binding

T1 sequence (Q0TKD8 1-172): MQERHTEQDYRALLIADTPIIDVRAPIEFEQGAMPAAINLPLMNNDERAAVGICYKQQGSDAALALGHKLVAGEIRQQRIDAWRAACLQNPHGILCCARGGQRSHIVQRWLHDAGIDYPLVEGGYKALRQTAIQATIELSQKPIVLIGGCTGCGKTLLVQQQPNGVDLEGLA

Compound `CC(C)=CCC/C(C)=C/COC[C@H]1O[C@@H](n2ccc(=O)[nH]c2=O)[C@H](O)[C@@H]1O` [simamycin] has a Kd of 29.9 µM.
